The target in assay [1] is pseudo-kinase domain (JH2) of human V617F mutant JAK2 (Homo sapiens (Human), UniProt O60674, F794H/V617F/W659A/W777A). Kind of assay: JAK2 LanthaScreen JH2-V617F Binding Assay. The note with it: read-out: JH2 V617F Bind IC50. The method in brief:
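Biotinylated His-Avi JAK2 JH2 (aa 536-812, V617F plus W659A/W777A/F794H; 0.26 nM) incubated 1 h at 25 °C with compound, 50 nM fluorescent JH2 tracer and 0.25 nM streptavidin-Tb in Tris pH 7.5 buffer. TR-FRET tracer displacement read; nonspecific binding with 2 mM ATP; IC50 from four-parameter fit.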
(In general: Time-resolved FRET reads energy transfer from a long-lived donor to a nearby acceptor.)

In assay [2] the test system is pSTAT5 in SET-2 cells in whole blood. Kind of assay: pSTAT5 SET-2 Whole Blood MSD Assay. It is filed as cell-based. The note with it: Homo sapiens, 2 hour incubation, read-out: SET2 WB IC50. As to the method:
SET-2 cells shipped from ABS, RPMI1640 medium, Fetal Bovine Serum from Gibco, Phospho-STAT5a,b Whole Cell Lysate Kit from Mesoscale, Retronectin (Recombinant Human Fibronectin Fragment) from TaKaRa, 96 well cell culture plate flat bottom from Corning, lysis buffer from Cell Signaling Technology, and sterile PBS from Gibco. Whole Blood from by BioIVT.
SET-2 cells were cultured in RPMI media with 20% FBS at 37° C. humidified incubator supplied with 5% CO2. On the day of the assay, 40 uL per well of diluted retronectin working solution was added to sterile 96-well clear flat bottom tissue culture plates (1:200 dilution of retronectin in sterile PBS) and incubated at 37 C for 1 hour. After 1 hour, the retronectin working solution was aspirated and SET-2 cells were seeded at 100,000/well in RPMI+20% FBS. Cells were incubated overnight at 37° C. and 5% CO2. The next day, the medium was removed and 40 μL of diluted compounds in serum-free RPMI and whole blood was added to the cells for a 2 hour incubation at 37° C. and 5% CO2. The compound starting concentration is 20 μM and 2.5 fold serial diluted down to 0.21 nM. The whole blood and compound mixture was then aspirated off using the BlueCat plate washer and washed 1× with PBS. Cells were lysed by adding 40 μL of 3× complete lysis buffer and shaken at room temperature for 45-60 minutes (complete lysis buffer consists of Cell Signaling Technology lysis buffer diluted to 3× and supplemented with Mesoscale's protease inhibitor, phosphatase I inhibitor, and phosphatase II inhibitor). The pSTAT5 MSD plates were blocked by adding 150 μL of Blocker A solution per well to the MSD plates and incubated at room temperature with shaking at 400 rpm for one hour or longer. After blocking, plates were washed 3× with 300 μL/well of 1× Tris Wash Buffer. After lysis, added 25 μL per well of lysed sample was added to MSD plate and incubated with shaking at 4° C. wrapped in foil overnight. The next day, plates were washed again and 25 μL/well of diluted 1× Detection Antibody Solution, wrapped in foil, and incubated at room temperature with shaking at 400 rpm for 1 hour. Plates were then washed again and lastly, 150 μL/well of 1× Read Buffer T was added to all wells. Plates were analyzed on MSD Discovery within 5 minutes. […] Data analysis was performed in GraphPad Prism using a 4-parameter fit and data was reported as Average±SD.

The subject of assay [3] is STAT5 (Tyr694) phosphorylation in SET-2 cells. Kind of assay: STAT5 (Tyr694) Phosphorylation Cell Based Assay. The note with it: Homo sapiens, 2 hours, read-out: SET2 IC50. The method in brief: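 SET-2 cells in RPMI with 10% FBS were exposed to compound for 2 h at 37 °C (0.5% DMSO final). After lysis, phospho-STAT5 (Tyr694) was read by HTRF (665/620 ratio) after 24 h antibody incubation at room temperature. IC50 was fitted from percent control activity versus log concentration.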

Chain of pseudo-kinase domain (JH2) of human V617F mutant JAK2 (O60674 536-812 V617F/W659A/W777A/F794H): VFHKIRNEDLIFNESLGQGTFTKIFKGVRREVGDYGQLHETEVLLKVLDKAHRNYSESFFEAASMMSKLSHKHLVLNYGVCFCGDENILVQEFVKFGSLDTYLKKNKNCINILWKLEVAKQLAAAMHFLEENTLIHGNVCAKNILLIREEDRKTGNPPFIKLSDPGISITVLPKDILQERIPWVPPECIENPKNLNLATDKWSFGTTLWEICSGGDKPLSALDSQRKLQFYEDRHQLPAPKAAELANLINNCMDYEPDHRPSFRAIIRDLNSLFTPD

A word on the IC50: it is the midpoint of a concentration-inhibition curve. For `COC(=O)N[C@@H]1CC[C@@H](n2c(=O)n(C)c3cnc4[nH]c(-c5ccc(C(=O)NC6CC6C(F)(F)F)c(F)c5)c(-c5ccc6c(cnn6C(C)C)c5)c4c32)C1` (stereo partly drawn) [Example 10, Methyl ((1R,3R)-3-(7-(3-fluoro-4-((2-(trifluoromethyl)cyclopropyl)carbamoyl)phenyl)-8-(1-isopropyl-1H-indazol-5-yl)-3-methyl-2-oxo-3,6-dihydroimidazo[4,5-d]pyrrolo[2,3-b]pyridin-1(2H)-yl)cyclopentyl)carbamate], the results for the IC50 in assay [1], in assay [2] and in assay [3] were ≤ 10 nM, > 7500 nM and 300 to 800 nM, respectively.
As to `CCNC(=O)c1ccc(-c2[nH]c3ncc4c(c3c2-c2ccc3c(cnn3C(C)C)c2)n([C@@H]2CC[C@@H](NC(=O)OC)C2)c(=O)n4C)cc1` [Example 23, Methyl ((1R,3R)-3-(7-(4-(ethylcarbamoyl)phenyl)-8-(1-isopropyl-1H-indazol-5-yl)-3-methyl-2-oxo-3,6-dihydroimidazo[4,5-d]pyrrolo[2,3-b]pyridin-1(2H)-yl)cyclopentyl)carbamate], the figures for the IC50 in assay [1], in assay [2] and in assay [3] were ≤ 10 nM, 2500 to 5000 nM and ≤ 300 nM, respectively.
For `COCCNC(=O)c1ccc(-c2[nH]c3ncc4c(c3c2-c2ccc3c(cnn3C(C)C)c2)n([C@@H]2CC[C@@H](NC(=O)OC)C2)c(=O)n4C)cc1F` [Example 14, Methyl ((1R,3R)-3-(7-(3-fluoro-4-((2-methoxyethyl)carbamoyl)phenyl)-8-(1-isopropyl-1H-indazol-5-yl)-3-methyl-2-oxo-3,6-dihydroimidazo[4,5-d]pyrrolo[2,3-b]pyridin-1(2H)-yl)cyclopentyl)carbamate], in that order: ≤ 10 nM, 5000 to 7500 nM and ≤ 300 nM.
For `CNC(=O)c1ccc(-c2[nH]c3ncc4c(c3c2-c2ccc3c(cnn3C(C)C)c2)n([C@@H]2CC[C@@H](NC(=O)OC)C2)c(=O)n4C)cc1F` [Example 12, Methyl ((1R,3R)-3-(7-(3-fluoro-4-(methylcarbamoyl)phenyl)-8-(1-isopropyl-1H-indazol-5-yl)-3-methyl-2-oxo-3,6-dihydroimidazo[4,5-d]pyrrolo[2,3-b]pyridin-1(2H)-yl)cyclopentyl)carbamate], in that order: ≤ 10 nM, > 7500 nM and ≤ 300 nM.
With `[2H]C([2H])([2H])n1c(=O)n([C@@H]2CC[C@@H](NC(=O)OC)C2)c2c3c(-c4ccc5c(cnn5C(C)C)c4)c(-c4ccc(CN(C)C)cc4)[nH]c3ncc21` [Example 26, Methyl ((1R,3R)-3-(7-(4-((dimethylamino)methyl)phenyl)-8-(1-isopropyl-1H-indazol-5-yl)-3-(methyl-d3)-2-oxo-3,6-dihydroimidazo[4,5-d]pyrrolo[2,3-b]pyridin-1(2H)-yl)cyclopentyl)carbamate], the figures for the IC50 in assay [1], in assay [2] and in assay [3] were ≤ 10 nM, ≤ 2500 nM and ≤ 300 nM, respectively.
On the same counts, the results for `CCNC(=O)c1ccc(-c2[nH]c3ncc4c(c3c2-c2ccc3c(cnn3C(C)C)c2)n([C@@H]2CC[C@@H](NC(=O)OC)C2)c(=O)n4C)cc1F` [Example 6, Methyl ((1R,3R)-3-(7-(4-(ethylcarbamoyl)-3-fluorophenyl)-8-(1-isopropyl-1H-indazol-5-yl)-3-methyl-2-oxo-3,6-dihydroimidazo[4,5-d]pyrrolo[2,3-b]pyridin-1(2H)-yl)cyclopentyl)carbamate] are ≤ 10 nM, 2500 to 5000 nM and ≤ 300 nM.
On the same counts, the results for `COC(=O)N[C@@H]1CC[C@@H](n2c(=O)n(C)c3cnc4[nH]c(-c5ccc(C(=O)NC6CC6(F)F)c(F)c5)c(-c5ccc6c(cnn6C(C)C)c5)c4c32)C1` (stereo partly drawn) [Example 9, Methyl ((1R,3R)-3-(7-(4-((2,2-difluorocyclopropyl)carbamoyl)-3-fluorophenyl)-8-(1-isopropyl-1H-indazol-5-yl)-3-methyl-2-oxo-3,6-dihydroimidazo[4,5-d]pyrrolo[2,3-b]pyridin-1(2H)-yl)cyclopentyl)carbamate] are ≤ 10 nM, 5000 to 7500 nM and 300 to 800 nM.

The values above are taken from US20250092044A1, “Kinase Inhibitors” (Incyte Corporation, priority 2023, published 2025).
